# Patent US20090068290A1, “BIFEPRUNOX DOSES FOR TREATING SCHIZOPHRENIA” (priority 2006, published 2009)
# Key:
# [1] = system: adult subjects with schizophrenia; experiment: CGI Severity of Illness score, Clinical Study Two; format: in vivo, human; conditions: for Change from Baseline in CGI Severity of Illness Score, Mean (SD) / Change from Baseline in CGI Severity of Illness Score, Median / Change from Baseline in CGI Severity of Illness Score, Trt Effect (bifeprunox—placebo) / mean change (SD) from Baseline to Endpoint in CGI severity of illness score: LOCF; for Change from Baseline in CGI Severity of Illness Score, Mean (SD) / Change from Baseline in CGI Severity of Illness Score, Median / Change from Baseline in CGI Severity of Illness Score, Trt Effect (bifeprunox—placebo): ITT population; for CGI severity of illness score, treatment effect (bifeprunox—placebo): Endpoint LOCF; for mean change (SD) from Baseline to Endpoint in CGI severity of illness score: ITT
# Procedure: (§1) Rating scale assessments were performed weekly, except for week 5, to measure the change from baseline to endpoint of the PANSS total score. Other assessments included: PANSS positive symptom subscale score, PANSS negative symptom subscale score, PANSS general pschopathology subscale score, BPRS total score, BPRS psychosis score, the CGI-S score, the CGI-I score, responder rates based on the PANSS total score, and the Calgary Depression Scale for Schizophrenia (CDSS). […]
# (§2) Subjects who completed this study had the option to continue in the long-term. […] Risperidone-treated subjects were titrated from 2 mg to 6 mg daily over a three-day period and were subsequently maintained at 6 mg/day for the remainder of the treatment period. […] Blood samples were also obtained at Screening/Baseline, Week 3, and Week 6 for clinical laboratory assessments.
# [2] = system: adult subjects with schizophrenia; experiment: Calgary Depression Scale for Schizophrenia (CDSS), Clinical Study Two; format: in vivo, human; conditions: LOCF
# Procedure: as §1, §2
# [3] = Bifeprunox 30 mg, Week 6/Endpoint
# [4] = Bifeprunox 40 mg, Week 6/Endpoint
compound,measurement,setting,value
"O=c1[nH]c2cccc(N3CCN(Cc4cccc(-c5ccccc5)c4)CC3)c2o1 [Bifeprunox, 7-[4-([1,1′-biphenyl]-3-ylmethyl)-1-piperazinyl]-2(3H)-benzoxazolone]","Change from Baseline in CGI Severity of Illness Score, Mean (SD)","[1]; Bifeprunox 30 mg, Week 1",−0.33 (0.77)
same,"Change from Baseline in CGI Severity of Illness Score, Median","[1]; Bifeprunox 30 mg, Week 1",0.0
same,"Change from Baseline in CGI Severity of Illness Score, Mean (SD)","[1]; Bifeprunox 30 mg, Week 2",−0.58 (0.97)
same,"Change from Baseline in CGI Severity of Illness Score, Median","[1]; Bifeprunox 30 mg, Week 2",0.0
same,"Change from Baseline in CGI Severity of Illness Score, Mean (SD)","[1]; Bifeprunox 30 mg, Week 3",−0.67 (1.08)
same,"Change from Baseline in CGI Severity of Illness Score, Median","[1]; Bifeprunox 30 mg, Week 3",0.0
same,"Change from Baseline in CGI Severity of Illness Score, Mean (SD)","[1]; Bifeprunox 30 mg, Week 4",−0.68 (1.11)
same,"Change from Baseline in CGI Severity of Illness Score, Median","[1]; Bifeprunox 30 mg, Week 4",0.0
same,"Change from Baseline in CGI Severity of Illness Score, Mean (SD)",[1]; [3],−0.69 (1.19)
same,"Change from Baseline in CGI Severity of Illness Score, Median",[1]; [3],0.0
same,"Change from Baseline in CGI Severity of Illness Score, Trt Effect (bifeprunox—placebo)",[1]; [3],−0.28
same,"Change from Baseline in CGI Severity of Illness Score, Mean (SD)","[1]; Bifeprunox 40 mg, Week 1",−0.28 (0.65)
same,"Change from Baseline in CGI Severity of Illness Score, Median","[1]; Bifeprunox 40 mg, Week 1",0.0
same,"Change from Baseline in CGI Severity of Illness Score, Mean (SD)","[1]; Bifeprunox 40 mg, Week 2",−0.43 (0.90)
same,"Change from Baseline in CGI Severity of Illness Score, Median","[1]; Bifeprunox 40 mg, Week 2",0.0
same,"Change from Baseline in CGI Severity of Illness Score, Mean (SD)","[1]; Bifeprunox 40 mg, Week 3",−0.54 (1.02)
same,"Change from Baseline in CGI Severity of Illness Score, Median","[1]; Bifeprunox 40 mg, Week 3",0.0
same,"Change from Baseline in CGI Severity of Illness Score, Mean (SD)","[1]; Bifeprunox 40 mg, Week 4",−0.51 (1.08)
same,"Change from Baseline in CGI Severity of Illness Score, Median","[1]; Bifeprunox 40 mg, Week 4",0.0
same,"Change from Baseline in CGI Severity of Illness Score, Mean (SD)",[1]; [4],−0.54 (1.12)
same,"Change from Baseline in CGI Severity of Illness Score, Median",[1]; [4],0.0
same,"Change from Baseline in CGI Severity of Illness Score, Trt Effect (bifeprunox—placebo)",[1]; [4],−0.18
same,"CGI severity of illness score, treatment effect (bifeprunox—placebo)",[1]; bifeprunox 30 mg,−0.28
same,mean change (SD) from Baseline to Endpoint in CGI severity of illness score,[1]; bifeprunox 30 mg,−0.69 (1.19)
same,"CGI severity of illness score, treatment effect (bifeprunox—placebo)",[1]; bifeprunox 40 mg,−0.18
same,mean change (SD) from Baseline to Endpoint in CGI severity of illness score,[1]; bifeprunox 40 mg,−0.54 (1.12)
same,"CDSS Total Score, Trt Effect","[2]; 30 mg versus placebo, Week 6/Endpoint",−0.38
same,"Change from Baseline in CDSS Total Score, Mean (SD)","[2]; 30 mg, Week 1",−0.01 (2.90)
same,"Change from Baseline in CDSS Total Score, Median","[2]; 30 mg, Week 1",0.0
same,"Change from Baseline in CDSS Total Score, Mean (SD)","[2]; 30 mg, Week 2",−0.51 (3.37)
same,"Change from Baseline in CDSS Total Score, Median","[2]; 30 mg, Week 2",0.0
same,"Change from Baseline in CDSS Total Score, Mean (SD)","[2]; 30 mg, Week 3",−0.51 (3.56)
same,"Change from Baseline in CDSS Total Score, Median","[2]; 30 mg, Week 3",0.0
same,"Change from Baseline in CDSS Total Score, Mean (SD)","[2]; 30 mg, Week 4",−0.63 (3.48)
same,"Change from Baseline in CDSS Total Score, Median","[2]; 30 mg, Week 4",0.0
same,"Change from Baseline in CDSS Total Score, Mean (SD)","[2]; 30 mg, Week 6/Endpoint",−0.66 (3.64)
same,"Change from Baseline in CDSS Total Score, Median","[2]; 30 mg, Week 6/Endpoint",0.0
same,"CDSS Total Score, Trt Effect","[2]; 40 mg versus placebo, Week 6/Endpoint",0.29
same,"Change from Baseline in CDSS Total Score, Mean (SD)","[2]; 40 mg, Week 1",−0.54 (2.56)
same,"Change from Baseline in CDSS Total Score, Median","[2]; 40 mg, Week 1",0.0
same,"Change from Baseline in CDSS Total Score, Mean (SD)","[2]; 40 mg, Week 2",−0.32 (2.95)
same,"Change from Baseline in CDSS Total Score, Median","[2]; 40 mg, Week 2",0.0
same,"Change from Baseline in CDSS Total Score, Mean (SD)","[2]; 40 mg, Week 3",−0.44 (3.09)
same,"Change from Baseline in CDSS Total Score, Median","[2]; 40 mg, Week 3",0.0
same,"Change from Baseline in CDSS Total Score, Mean (SD)","[2]; 40 mg, Week 4",−0.19 (3.32)
